Counter-ions that a name gives are not always drawn. Like-named read-outs stand apart in the source and are kept apart here.
Experiments:
[1] = test system: Diet Induced Obese (DIO) C57BL/6 mice; experiment: 10 day DIO mouse model (body weight, food intake, hematology, blood chemistry); assay type: in vivo; settings: 240 h, read-out: DIO Mouse 10-day weight loss vs vehicle; for inhibition in vivo at 0.1 mg/kg: 0.1 mpk sc; for inhibition in vivo at 1 mg/kg: 1.0 mpk sc
Summary of the method: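 DIO C57BL/6 mice on 60% kcal fat diet received compounds subcutaneously once daily for 10 days at 1.0, 0.5, 0.3, 0.1 or 0.03 mpk, in 10% DMSO in water, after 3-day vehicle acclimation. Body weight and food intake were recorded daily. Hematology and blood chemistry were taken on Day 11, 24 h post-final dose.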

[2] = test system: Male Sprague Dawley rats on high fat diet; experiment: 11 day rat DIO model (body weight, food intake, hematology, blood chemistries); assay type: in vivo; settings: 264 h, read-out: DIO Rat 11-day weight loss vs vehicle
Summary of the method: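 Male Sprague Dawley rats on 45% high-fat diet, acclimated 3 days to vehicle injections, then given compound (0.03-1.0 mg/kg) or vehicle (10% DMSO in water) sc once daily for 11 days. Body weight and food intake recorded daily. Blood taken about 2 h after the final dose for hematology and chemistry.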

[3] = test system: pregnant Sprague Dawley rats (embryo/fetal development)
Text: Study Summary Rat Embryofetal:
The objective of this study design was to evaluate the potential effects of disclosed compounds on embryo/fetal development when given subcutaneously to pregnant rats once every three days during the critical period of organogenesis (Gestation Days 6-18). Female, Sprague Dawley rats, approximately 10 weeks of age, time bred, were ordered from a certified vendor and housed individually housed in stainless steel cages suspended over flush pans, on a 12-hour light-dark cycle (0700-1900) at 20-26° C. and 30-70% humidity. Rats were fed a standard rodent chow and provided water ad libitum. Rats were received and housed in the facility for a period of approximately 1 to 2 days.
Compounds were formulated using 100% DMSO mixed in Sterile Water for Injection, resulting in 2% DMSO solution in water. If necessary, due to limited solubility of a test article, a higher percentage of DMSO solution in water was used. Groups of 8 mated and presumed pregnant female rats were given subcutaneous doses of vehicle or test article, once every three days, beginning on Gestation Day 6 and ending on Gestation Day 18 (Days 6, 9, 12, 15, and 18), maintained two more days, and then euthanized and necropsied on Gestation Day 20. Body weights was recorded for all animals on Gestation Days 5 (purpose of randomization), 6, 9, 12, 15, 18, and 20 (scheduled euthanasia). Food consumption by weight was recorded on Gestation Days 6, 9, 12, 15, 18, and 20 (scheduled termination).
At necropsy, the dams were examined visually for external abnormalities including palpable masses. The abdominal, thoracic, and cranial cavities and their contents were examined for abnormalities and findings will be recorded. The reproductive tract were examined to record the number of ovarian corpora lutea, the number and location of uterine implantation sites noting the position of the cervix, and the number of early resorptions, late resorptions, live fetuses, and dead fetuses. For dead fetuses and late resorptions, crown-to-rump length and weight were recorded, if possible, and the fetus was discarded. For viable fetuses, weight, sex, and grossly visible external abnormalities were recorded.

[4] = target: recombinant human MetAP2 (Homo sapiens (Human), UniProt P50579); experiment: recombinant human MetAP2 enzyme inhibition assay; assay type: biochemical; settings: recombinant human MetAP2, MAS peptide substrate, 25 minutes at 25° C
Sequence of recombinant human MetAP2 (P50579 whole entry): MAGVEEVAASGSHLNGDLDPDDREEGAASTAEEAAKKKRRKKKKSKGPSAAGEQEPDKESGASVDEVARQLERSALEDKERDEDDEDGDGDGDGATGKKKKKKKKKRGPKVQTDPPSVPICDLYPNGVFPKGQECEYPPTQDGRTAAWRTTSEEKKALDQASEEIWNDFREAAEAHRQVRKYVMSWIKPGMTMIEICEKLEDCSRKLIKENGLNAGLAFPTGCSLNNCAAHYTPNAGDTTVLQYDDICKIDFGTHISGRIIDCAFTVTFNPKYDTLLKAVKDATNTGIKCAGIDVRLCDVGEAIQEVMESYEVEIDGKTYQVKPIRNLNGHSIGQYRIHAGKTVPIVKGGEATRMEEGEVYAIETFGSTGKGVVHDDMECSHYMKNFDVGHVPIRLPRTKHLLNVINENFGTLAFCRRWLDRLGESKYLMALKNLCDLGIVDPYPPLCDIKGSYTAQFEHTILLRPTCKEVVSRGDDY
Protocol: Compounds are tested for their capacity to inhibit recombinant human MetAP2 activity using the following assay.
Flag tagged Human recombinant MetAP2 expressed and isolated for use as the enzyme source. 10 mM stock solutions of compounds were prepared in 100% DMSO and further diluted in 100% DMSO required concentration to 1 mM stocks. The stock compound solutions and DMSO vehicle controls were diluted to target final compound concentrations using assay buffer to a final concentration of 50 mM HEPES containing 100 mM NaCl, pH adjusted to 7.5. The MAS peptide was formulated to a 7.5 mM stock in distilled water and prior to use further diluted 1:4. […] 40 μl of enzyme was mixed with 100 μl of MnCl2 then further diluted in assay buffer to a final concentration of 16 μg/ml. To test for compound effect on MetAP2 enzyme activity, 5 μl of test compound, 10 μl of MAS substrate/amino acid oxidase mixture, 10 μl of MetAP2 was added to test wells in a 384 well black plate with blank wells containing no enzyme, replaced with 10 μl of assay buffer. All compounds were tested in duplicate on two occasions on the same day.
The plate was sealed with a TopSeal A cover and mixed briefly on an orbital mixer at 900 rpm. The plate was incubated for a further 25 minutes at 25° C. A 5× stock of Amplex buffer was prepared (0.25M sodium phosphate, pH 7.4) and stored at 4° C. […] 25 μl detection reagent was added to each well of the test plate, which was re-sealed and mixed briefly on an orbital shaker.

[5] = DIO mouse, 0.3 mpk sc, once a day for 10 days
[6] = DIO rat, 0.3 mpk sc, once a day for 11 days
[7] = 6 mpk, subcutaneous, once every three days, Gestation Days 6-18, pregnant rats
[8] = DIO rat, 1.0 mpk sc, once a day for 11 days
[9] = DIO mouse, once a day for 10 days

Structure (SMILES) | inhibition in vivo at 0.3 mg/kg [1, 5] [%] | inhibition in vivo at 0.3 mg/kg [2, 6] [%] | Rat Embryofetal @6 mpk [3, 7] | inhibition in vivo at 1 mg/kg [2, 8] [%] | also measured
CO[C@@H]1[C@H](OC(=O)/C=C/c2ccc(OCCN(C)C)cc2)CC[C@]2(CO2)[C@H]1[C@@]1(C)O[C@@H]1CC=C(C)C [A, [(3R,6R,7S,8S)-7-methoxy-8-[(2R,3R)-2-methyl-3-(3-methylbut-2-enyl)oxiran-2-yl]-2-oxaspiro[2.5]octan-6-yl] (E)-3-[4-[2-(dimethylamino)ethoxy]phenyl]prop-2-enoate, reference compound] | 18 | 20 | Positive | – | –
CO[C@@H]1[C@H](OC(=O)N2CC(CCN3CCOCC3)C2)CC[C@]2(CO2)[C@H]1[C@@]1(C)O[C@@H]1CC=C(C)C [Example 1, (3R,4S,5S,6R)-5-methoxy-4-((2R,3R)-2-methyl-3-(3-methylbut-2-en-1-yl)oxiran-2-yl)-1-oxaspiro[2.5]octan-6-yl 3-(2-morpholinoethyl)azetidine-1-carboxylate] | 16.8 | 5.7 | Negative | 7.7 | –
CO[C@@H]1[C@H](OC(=O)N2CC(CCN3CC(F)(F)C3)C2)CC[C@]2(CO2)[C@H]1[C@@]1(C)O[C@@H]1CC=C(C)C [Example 2, (3R,4S,5S,6R)-5-methoxy-4-((2R,3R)-2-methyl-3-(3-methylbut-2-enyl)oxiran-2-yl)-1-oxaspiro[2.5]octan-6-yl 3-(2-(3,3-difluoroazetidin-1-yl)ethyl)azetidine-1-carboxylate] | 19.7 | 5.7 | Negative | 6.4 | inhibition in vivo at 0.1 mg/kg [1, 9]: 14.2%; inhibition in vivo at 1 mg/kg [1, 9]: 24.2%
CO[C@@H]1[C@H](OC(=O)N2CC(CCN3CC(O)C3)C2)CC[C@]2(CO2)[C@H]1[C@@]1(C)O[C@@H]1CC=C(C)C [Example 6, (3R,4S,5S,6R)-5-methoxy-4-((2R,3R)-2-methyl-3-(3-methylbut-2-enyl)oxiran-2-yl)-1-oxaspiro[2.5]octan-6-yl 3-(2-(3-hydroxyazetidin-1-yl)ethyl)azetidine-1-carboxylate formate] | – | – | – | – | inhibition in vivo at 0.3 mg/kg ([1]; Mus musculus, sc): 11.8%; inhibition in vivo at 0.3 mg/kg ([2]; Rattus norvegicus, sc): 0.8%; inhibition in vivo at 1 mg/kg ([2]; Rattus norvegicus, sc): 4.6%; Rat Embryofetal @6 mpk ([3]; rat, in vivo): Positive
CO[C@@H]1[C@H](OC(=O)N2CC(CCN3CC(C)(O)C3)C2)CC[C@]2(CO2)[C@H]1[C@@]1(C)O[C@@H]1CC=C(C)C [Example 9, (3R,4S,5S,6R)-5-methoxy-4-((2R,3R)-2-methyl-3-(3-methylbut-2-enyl)oxiran-2-yl)-1-oxaspiro[2.5]octan-6-yl 3-(2-(3-hydroxy-3-methylazetidin-1-yl)ethyl)azetidine-1-carboxylate formate] | – | – | – | – | inhibition in vivo at 0.3 mg/kg ([1]; Mus musculus, sc): 7.4%; inhibition in vivo at 0.3 mg/kg ([2]; Rattus norvegicus, sc): 5.5%; inhibition in vivo at 1 mg/kg ([2]; Rattus norvegicus, sc): 4.8%; Rat Embryofetal @6 mpk ([3]; rat, in vivo): Positive
CO[C@@H]1[C@H](OC(=O)N2CC(CCN3CC4C(C3)C4(F)F)C2)CC[C@]2(CO2)[C@H]1[C@@]1(C)O[C@@H]1CC=C(C)C (stereo partly drawn) [Example 22, (3R,4S,5S,6R)-5-methoxy-4-((2R,3R)-2-methyl-3-(3-methylbut-2-enyl)oxiran-2-yl)-1-oxaspiro[2.5]octan-6-yl 3-(2-(6,6-difluoro-3-azabicyclo[3.1.0]hexan-3-yl)ethyl)azetidine-1-carboxylate formate] | – | – | – | – | inhibition in vivo at 0.3 mg/kg ([1]; Mus musculus, sc): 14%; Rat Embryofetal @6 mpk ([3]; rat, in vivo): Negative
CNC(=O)OC1CN(C(=O)O[C@@H]2CC[C@]3(CO3)[C@@H]([C@@]3(C)O[C@@H]3CC=C(C)C)[C@@H]2OC)C1 [Example 74, (3R,4S,5S,6R)-5-methoxy-4-((2R,3R)-2-methyl-3-(3-methylbut-2-enyl)oxiran-2-yl)-1-oxaspiro[2.5]octan-6-yl 3-(methylcarbamoyloxy)azetidine-1-carboxylate] | 12.3 | 7.9 | Negative | 6 | IC50 [4]: < 0.05 µM
CO[C@@H]1[C@H](OC(=O)N2CC(OC(=O)N3CCN(C)CC3)C2)CC[C@]2(CO2)[C@H]1[C@@]1(C)O[C@@H]1CC=C(C)C [Example 78, 1-(((3R,4S,5S,6R)-5-methoxy-4-((2R,3R)-2-methyl-3-(3-methylbut-2-enyl)oxiran-2-yl)-1-oxaspiro[2.5]octan-6-yloxy)carbonyl)azetidin-3-yl 4-methylpiperazine-1-carboxylate] | 10.7 | 1.2 | Positive | – | –
CO[C@@H]1[C@H](OC(=O)N2CC(OC(=O)N3CCN(CC(F)(F)F)CC3)C2)CC[C@]2(CO2)[C@H]1[C@@]1(C)O[C@@H]1CC=C(C)C [Example 81, 1-(((3R,4S,5S,6R)-5-methoxy-4-((2R,3R)-2-methyl-3-(3-methylbut-2-enyl)oxiran-2-yl)-1-oxaspiro[2.5]octan-6-yloxy)carbonyl)azetidin-3-yl 4-(2,2,2-trifluoroethyl)piperazine-1-carboxylate] | 16.9 | – | Positive | – | –
CO[C@@H]1[C@H](OC(=O)N2CC(Cc3ccc(C)nc3)C2)CC[C@]2(CO2)[C@H]1[C@@]1(C)O[C@@H]1CC=C(C)C [Example 101, (3R,4S,5S,6R)-5-methoxy-4-((2R,3R)-2-methyl-3-(3-methylbut-2-enyl)oxiran-2-yl)-1-oxaspiro[2.5]octan-6-yl 3-((6-methylpyridin-3-yl)methyl)azetidine-1-carboxylate] | 15.6 | 3.9 | Positive | – | –
CCN(CC)CCCC1CN(C(=O)O[C@@H]2CC[C@]3(CO3)[C@@H]([C@@]3(C)O[C@@H]3CC=C(C)C)[C@@H]2OC)C1 [Example 104, (3R,4S,5S,6R)-5-methoxy-4-((2R,3R)-2-methyl-3-(3-methylbut-2-enyl)oxiran-2-yl)-1-oxaspiro[2.5]octan-6-yl 3-(3-(diethylamino)propyl)azetidine-1-carboxylate] | 6.4 | 1.2 | Positive | 9.9 | inhibition in vivo at 0.03 mg/kg ([1]; DIO mouse, 0.03 mpk sc, once a day for 10 days): -0.9%; inhibition in vivo at 0.1 mg/kg [1, 9]: 8.3%; inhibition in vivo at 1 mg/kg [1, 9]: 10.9%
CCNC[C@H]1CCN1C(=O)O[C@@H]1CC[C@]2(CO2)[C@@H]([C@@]2(C)O[C@@H]2CC=C(C)C)[C@@H]1OC [Example 123, (R)-((3R,4S,5S,6R)-5-methoxy-4-((2R,3R)-2-methyl-3-(3-methylbut-2-enyl)oxiran-2-yl)-1-oxaspiro[2.5]octan-6-yl) 2-((ethylamino)methyl)azetidine-1-carboxylate formate] | – | 1 | – | 5.4 | inhibition in vivo at 1 mg/kg [1, 9]: 9.7%; IC50 [4]: < 0.05 µM

— patent US9682965B2, “Fumagillol heterocyclic compounds and methods of making and using same” (Zafgen, Inc., priority 2015, dated 2017)
